Data: patent US20230181564A1, “Potent Tetrahydroquinolone Eliminates Apicomplexan Parasites” (The University of Chicago, priority 2020, published 2023)

What was measured:
[1] = Metabolic stability in human liver microsomes; assay type: in vitro ADME
Protocol: PBS Sol/Toxicity pH7.4 refers to solubility of the compound in Phosphate Buffered Saline (PBS) at pH7.4. […] Parasites were RH-YFP expressing tachyzoites (Tachy) and EGS (Brady) strains. Studies of effects of inhibitors on HFF or on T.gondii tachyzoites were performed with triplicate wells in at least two biological replicate experiments. Studies of effects on bradyzoites were performed at least twice in at least two biological replicate experiments. Compounds with much less inhibition of mammalian than T. gondii cytochrome bc in the saffarine enzyme assay (indicated by **) provide potential to further develop compounds, if unanticipated toxicity occurs from JAG21.
Structure Activity Relationship (SAR) and comparison of effect on T.gondii and HFF enzyme activity. […] The MDCK-MDR1 Permeability Assay was also performed. […] These were measured by Chem Partners.

[2] = target: T1, P. falciparum bc1 complex cytochrome c reductase (Pfbc1) (Plasmodium falciparum, UniProt Q02768); assay: Pfbc1 native assay (cytochrome c reduction by parasite extract); assay type: biochemical; details: atovaquone 1 μM positive control, mean±S.D., N=4
T1 construct: Parasite extract was then prepared by disruption with a sonicating probe; endogenous in cells; host or cells: P. falciparum 3D7 blood-stage parasites freed by saponin, sonicated extract
T1 sequence (Q02768 1-376): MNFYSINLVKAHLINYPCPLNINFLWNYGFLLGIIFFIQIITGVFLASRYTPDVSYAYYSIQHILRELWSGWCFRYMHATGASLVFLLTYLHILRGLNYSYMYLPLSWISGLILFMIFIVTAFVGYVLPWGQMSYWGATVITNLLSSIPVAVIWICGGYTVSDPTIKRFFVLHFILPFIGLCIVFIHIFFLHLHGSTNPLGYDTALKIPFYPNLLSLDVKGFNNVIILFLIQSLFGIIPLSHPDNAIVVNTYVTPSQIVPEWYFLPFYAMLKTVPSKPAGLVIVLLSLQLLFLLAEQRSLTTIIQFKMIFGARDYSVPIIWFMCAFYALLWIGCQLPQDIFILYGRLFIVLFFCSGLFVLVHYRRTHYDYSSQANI
Protocol: Enzyme assays. P. falciparum 3D7 strain were obtained from the Liverpool School of Tropical Medicine. Protease cocktail inhibitor was obtained from Roche. Bradford protein assay dye reagent was obtained from Bio-Rad. All other reagents were obtained from Sigma-Aldrich. Decylubiquinol was produced as per Fisher et al. (2009). In brief, 25 mg of decylubiquinone were dissolved in 400 μl of nitrogen-saturated hexane. An equal volume of aqueous 1 M sodium dithionite was added, and the mixture vortexed until colorless. […] Concentrations of decylubiquinol was determined spectrophotometrically on a Cary 300 Bio UV/visible spectrophotometer (Varian, UK) from absolute spectra, using ε288-320=8.1 mM-1·cm^−1. […]
The protocol for the preparation of parasite extract was adapted from Fisher et al. Free parasites were prepared from infected erythrocytes pooled from five T75 flasks, by adding 5 volumes of 0.15% (w/v) saponin in phosphate-buffered saline (137 mM NaCl, 2.7 mM KCl, 1.76 mM K2HPO4, 8.0 mM Na2HPO4, 5.5 mM D-glucose, pH 7.4) for 5 min, followed by three washes by centrifugation in RPMI containing HEPES (25 mM), and a final resuspension in potassium phosphate buffer (50 mM K2HPO4, 50 mM KH2PO4, 2 mM EDTA, pH7.4) containing a protease inhibitor cocktail (Complete Mini; Roche). […] The protein concentration of the parasite extract was determined by Bradford protein assay (Bio-Rad). […]

T. gondii ΔRPS13 = assay: ΔRPS13 infection of interferon receptor knockout mice; assay type: in vivo, Toxoplasma gondii; details: 100,000 ΔRPS13; TAF day -1, JAG21 14 days, then tetracycline; vs either alone; not durable
Description: RPS13 Δ In vivo. This G1 arrested parasite persists in tissue culture for prolonged times in the absence of tetracycline (Hutson et al 2010), but in immune competent mice it cannot be rescued with teteracycline, or LNAME (L-N^G-Nitro arginine methyl ester, an analog of arginine) used as an antagonist of nitric oxide synthase (NOS) that inhibits NO production, or both together (Hutson et al. 2010).
In pilot studies, herein, interferon α receptor knockout mice that were not treated were observed following infection. At 7 and at 14 days following infection, spleen and liver were removed and immune peroxidase stained. At 14 days a group of mice were treated with anhydrotetracycline and when a subset of these mice died their spleen and liver were removed and immune peroxidase stained.
As in the pilot studies, this RPS13 Δ parasite also was used to infect interferon α receptor knockout mice in a treatment study. In this separate study, groups of mice were infected with RPS13 Δ. […] At the time they appeared to have substantial illness or at the termination of the experiment they were euthanized, tissues fixed in formalin and stained with hematoxylin and eosin or immunoperoxidase stained and parasite burden was assessed.

Cc1[nH]c2c(c(=O)c1-c1ccc(Oc3ccc(OC(F)(F)F)cc3)cc1)CCCC2 [JAG021, 2-methyl-3-(4-(4-(trifluoromethoxy)phenoxy)phenyl)-5,6,7,8-tetrahydroquinolin-4-one]
Remaining in human liver microsomes ([1]; after 45 minutes): > 99% | half-life ([1]; predicted half-life in human liver microsomes, unit in cell, read-out: T1/2 (H)): > 168 h | inhibition at 1 µM [2]: 86.4 ± 3.2% | Survival time, JAG21 combined with tafenoquine (T. gondii ΔRPS13): improved time of survival
